# The supplement of paper PMC10307832
# Compound: C[C@@H](C(=O)N[C@@H](C1CCCCC1)C(=O)N2CCC[C@H]2C(=O)N[C@@H]3[C@@H](CC4=CC=CC=C34)OCC#CC#CCO[C@@H]5CC6=CC=CC=C6[C@@H]5NC(=O)[C@@H]7CCCN7C(=O)[C@H](C8CCCCC8)NC(=O)[C@H](C)NC)NC [AZD5582] + Nc1ncn([C@H]2C[C@H](O)[C@@H](CO)O2)c(=O)n1 [Decitabine] (partner 2 µM)
# Experiment: relative viability (nuclei count vs DMSO), 5 days (fraction); higher = more cells survive
# Settings: first compound 0.001581 µM
# Summary of the method: (§1)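 Medians of duplicate plates are given as relative viability. That measure is the nuclei count in treated wells divided by the count in vehicle wells. Counts were taken on 4× images of lung cancer cell lines in 1536-well plates, 5 days after pin-tool dosing the day after seeding with one drug alone or a fixed anchor-drug dose plus five library-drug doses (not always all listed) in √10 steps.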
row,Cell Line,relative viability
1,NCI-H1755,0.709
2,NCI-H1792,0.503
3,NCI-H1915,0.278
4,NCI-H1975,0.35
5,NCI-H1993,0.634
6,NCI-H2009,0.4
7,NCI-H2023,0.217
8,NCI-H2085,0.527
9,NCI-H2087,0.336
10,NCI-H2126,0.53
11,NCI-H2347,0.701
12,NCI-H2405,0.772
13,NCI-H3122,0.476
14,PC-3 [JPC-3],0.737
15,PC-14,0.12
16,SK-LU-1,0.535
17,SW 1573,0.551
18,UMC-11,0.637

# Same assay, conditions: first compound 0.005 µM
row,Cell Line,relative viability
1,NCI-H1755,0.761
2,NCI-H1792,0.622
3,NCI-H1915,0.26
4,NCI-H1975,0.408
5,NCI-H1993,0.7
6,NCI-H2009,0.355
7,NCI-H2023,0.2
8,NCI-H2085,0.644
9,NCI-H2087,0.299
10,NCI-H2126,0.577
11,NCI-H2347,0.624
12,NCI-H2405,0.861
13,NCI-H3122,0.384
14,PC-3 [JPC-3],0.641
15,PC-14,0.165
16,SK-LU-1,0.379
17,SW 1573,0.631
18,UMC-11,0.638

# Same assay, conditions: first compound 0.01581 µM
row,Cell Line,relative viability
1,NCI-H1755,0.694
2,NCI-H1792,0.526
3,NCI-H1915,0.276
4,NCI-H1975,0.412
5,NCI-H1993,0.603
6,NCI-H2009,0.412
7,NCI-H2023,0.243
8,NCI-H2085,0.608
9,NCI-H2087,0.255
10,NCI-H2126,0.581
11,NCI-H2347,0.668
12,NCI-H2405,0.687
13,NCI-H3122,0.42
14,PC-3 [JPC-3],0.855
15,PC-14,0.205
16,RERF-LC-KJ,0.779
17,SK-LU-1,0.673
18,SW 1573,0.674
19,UMC-11,0.731

# Same assay, conditions: first compound 0.05 µM
row,Cell Line,relative viability
1,NCI-H1755,0.725
2,NCI-H1792,0.672
3,NCI-H1915,0.259
4,NCI-H1975,0.276
5,NCI-H1993,0.613
6,NCI-H2009,0.363
7,NCI-H2023,0.204
8,NCI-H2085,0.545
9,NCI-H2087,0.28
10,NCI-H2126,0.59
11,NCI-H2347,0.469
12,NCI-H2405,0.721
13,NCI-H3122,0.224
14,PC-3 [JPC-3],0.431
15,PC-14,0.116
16,RERF-LC-KJ,0.208
17,SK-LU-1,0.21
18,SW 1573,0.685
19,UMC-11,0.71

# Compound: Cn1nnc2c(C(N)=O)ncn2c1=O [Temozolomide] + C[C@@H](Oc1cc(-c2cnn(C3CCNCC3)c2)cnc1N)c1c(Cl)ccc(F)c1Cl [Crizotinib] (partner 1 µM)
# Experiment: as above
# Settings: first compound 0.2 µM
# Summary of the method: as §1
row,Cell Line,relative viability
1,NCI-H1755,1
2,NCI-H1792,0.957
3,NCI-H1915,0.922
4,NCI-H1975,1.02
5,NCI-H1993,0.779
6,NCI-H2009,1.07
7,NCI-H2023,0.64
8,NCI-H2085,0.746
9,NCI-H2087,0.898
10,NCI-H2126,1.05
11,NCI-H2347,0.695
12,NCI-H2405,0.882
13,NCI-H3122,0.291
14,PC-3 [JPC-3],0.993
15,PC-14,0.954
16,RERF-LC-KJ,0.884
17,SK-LU-1,0.978
18,SW 1573,0.801
19,UMC-11,0.774

# Same assay, conditions: first compound 0.6325 µM
row,Cell Line,relative viability
1,NCI-H1755,0.894
2,NCI-H1792,1.05
3,NCI-H1915,0.816
4,NCI-H1975,0.948
5,NCI-H1993,0.85
6,NCI-H2009,1.07
7,NCI-H2023,0.631
8,NCI-H2085,0.904
9,NCI-H2087,0.74
10,NCI-H2126,0.984
11,NCI-H2347,0.712
12,NCI-H2405,0.863
13,NCI-H3122,0.281
14,PC-3 [JPC-3],0.951
15,PC-14,0.902
16,RERF-LC-KJ,0.848
17,SK-LU-1,1.06
18,SW 1573,0.787
19,UMC-11,0.646

# Same assay, conditions: first compound 2 µM
row,Cell Line,relative viability
1,NCI-H1755,0.894
2,NCI-H1792,1
3,NCI-H1915,0.754
4,NCI-H1975,1.06
5,NCI-H1993,0.876
6,NCI-H2009,1.06
7,NCI-H2023,0.678
8,NCI-H2085,0.651
9,NCI-H2087,0.892
10,NCI-H2126,0.974
11,NCI-H2347,0.715
12,NCI-H2405,0.955
13,NCI-H3122,0.324
14,PC-3 [JPC-3],1.03
15,PC-14,0.829
16,RERF-LC-KJ,0.838
17,SK-LU-1,0.92
18,SW 1573,0.82
19,UMC-11,0.692

# Same assay, conditions: first compound 6.325 µM
row,Cell Line,relative viability
1,NCI-H1755,0.805
2,NCI-H1792,0.76
3,NCI-H1915,0.597
4,NCI-H1975,0.92
5,NCI-H1993,0.94
6,NCI-H2009,1.03
7,NCI-H2023,0.516
8,NCI-H2085,0.866
9,NCI-H2087,0.803
10,NCI-H2126,1.07
11,NCI-H2347,0.651
12,NCI-H2405,0.771
13,NCI-H3122,0.264
14,PC-3 [JPC-3],0.974
15,PC-14,0.812
16,RERF-LC-KJ,0.818
17,SK-LU-1,0.518
18,SW 1573,0.594
19,UMC-11,0.632

# Same assay, conditions: first compound 20 µM
row,Cell Line,relative viability
1,NCI-H1755,0.678
2,NCI-H1792,0.972
3,NCI-H1915,0.342
4,NCI-H1975,0.956
5,NCI-H1993,0.703
6,NCI-H2009,1.07
7,NCI-H2023,0.648
8,NCI-H2085,0.685
9,NCI-H2087,0.871
10,NCI-H2126,1.05
